Positions of bridges follow the written chain, without caps; N, C: chain ends. No end group written: not given here.
Tested on: M. smegmatis 607
Test: Anti-mycobacterial activity by paper disk method
Format: cell-based, Mycobacterium smegmatis
Details: for Inhibition zone: paper disk (6 mm) containing 1 μg peptide on Middlebrook 7H9 agar spread with M. smegmatis 607 (approx. 1.5 × 10^8 CFU/ml), 37 °C, 48 hr, diameter of inhibitory zone, average from two independent experiments, '-' = no zone (activity lost); for Anti-mycobacterial activity compared with lariatin A (in words): M. smegmatis, paper disk method, 1 μg per disk
Experimental: To gain insights into the structure-activity relationships of lariatin A, anti-mycobacterial activity of 20 lariatin variants against M. smegmatis was evaluated by paper disk method (Fig. 4). Among lariatin variants related to the macrolactam ring, the anti-mycobacterial activity of Tyr6 variant only was lost, while the replacement of Tyr6 with tryptophan and phenylalanine didn’t affect the anti-mycobacterial activity. […] Furthermore, Gly11 and Asn14 were closely involved in the anti-mycobacterial activity because of the loss of the activity in their variants. […] Thus, it was shown that the positively charged amino acid residue was favorable at the residue at position 17. Also, it was shown that the amino acid residue without bulky or branched side chains at the residues at positions 15, 16 and 18 contributed to the higher potency.
Figure 4 Anti-mycobacterial activity of lariatin variants. Anti-mycobacterial activities of lariatin variants were evaluated by a paper disk method. Value of the inhibition zone against M. smegmatis and relative activity in comparison with lariatin A were shown here. Bar color represents potency of each compound when the value of inhibition zone of lariatin A is set up at 100%: yellow, <50% activity; green, 50–120% activity; blue, >120% activity. Value of inhibition zone represents the average from two independent experiments. TEXT PRINTED IN THE PICTURE: Lariatin A: Inhibition zone (mm): 21.8 | S2A: Inhibition zone (mm): 20.4 | Q3A: Inhibition zone (mm): 16.3 | L4A: Inhibition zone (mm): 8.9 | V5A: Inhibition zone (mm): 11.3 | Y6A: Inhibition zone (mm): - | V10A: Inhibition zone (mm): 7.6 | G11A: Inhibition zone (mm): - | H12A: Inhibition zone (mm): 12.7 | S13A: Inhibition zone (mm): 19.8 | N14A: Inhibition zone (mm): - | V15A: Inhibition zone (mm): 20.7 | I16A: Inhibition zone (mm): 24.0 | K17A: Inhibition zone (mm): 10.4 | P18A: Inhibition zone (mm): 29.6 | V15A/I16A: Inhibition zone (mm): 29.3 | Y6F: Inhibition zone (mm): 30.7 | Y6W: Inhibition zone (mm): 22.8 | R7K: Inhibition zone (mm): 26.5 | W9Y: Inhibition zone (mm): 14.9 | K17R: Inhibition zone (mm): 31.1
Antimicrobial activity of lariatins against M. smegmatis 607 was measured by a paper disk method. The cell suspension of M. smegmatis 607 was adjusted to approximately 1.5 × 10^8 CFU ml^−1 in a Middlebrook 7H9 broth (Difco, Becton Dickinson, Sparks, MD, USA) containing 0.05% Tween 80 and 10% ADC enrichment (5.0% bovine albumin fraction V, 2.0% dextrose and catalase (30 μg/ml)), and were spread on a Middlebrook 7H9 agar plate. A paper disk (6 ϕ mm, Advantec Toyo Kaisha, Ltd. Tokyo, Japan) containing 1 μg lariatin variants was placed on the agar plate and was incubated at 37 °C for 48 hr. A diameter (mm) of the inhibitory zone observed around the paper disk was measured to evaluate the anti-mycobacterial activity.

Substance | Inhibition zone | Anti-mycobacterial activity compared with lariatin A (in words)
V15A: lariatin A variant, alanine substitution at position 15 (GSQLVYREWVGHSNAIKP; lactam N-8 (inferred); not fully specified; ends not checked; UniProt H7C8I3 27-44, looked up, variant V15A) | 20.7 mm | 
P18A: lariatin A variant, alanine substitution at position 18 (GSQLVYREWVGHSNVIKA; lactam N-8 (inferred); not fully specified; ends not checked; UniProt H7C8I3 27-44, looked up, variant P18A) | 29.6 mm | more potent activity than lariatin A
S13A: lariatin A variant, alanine substitution at position 13 (GSQLVYREWVGHANVIKP; lactam N-8 (inferred); not fully specified; ends not checked; UniProt H7C8I3 27-44, looked up, variant S13A) | 19.8 mm | 
K17A: lariatin A variant, alanine substitution at position 17 (GSQLVYREWVGHSNVIAP; lactam N-8 (inferred); not fully specified; ends not checked; UniProt H7C8I3 27-44, looked up, variant K17A) | 10.4 mm | weaker activity
Lariatin A (GSQLVYREWVGHSNVIKP; lactam N-8 (inferred); ends not checked; UniProt H7C8I3 27-44, looked up) [18-residue lasso peptide from Rhodococcus jostii K01-B0171, macrolactam ring between Gly1 and Glu8, C-terminal tail threaded through ring] | 21.8 mm | 
H12A: lariatin A variant, alanine substitution at position 12 (GSQLVYREWVGASNVIKP; lactam N-8 (inferred); not fully specified; ends not checked; UniProt H7C8I3 27-44, looked up, variant H12A) | 12.7 mm | 
Y6F: lariatin A variant, Tyr6 replaced with phenylalanine (GSQLVFREWVGHSNVIKP; lactam N-8 (inferred); ends not checked; UniProt H7C8I3 27-44, looked up, variant Y6F) | 30.7 mm | 
